13 compounds from patent publication US9499550B2 (BRISTOL-MYERS SQUIBB COMPANY, priority 2012, dated 2016) can be followed below.

Experiment [1] relates to HCV genotype 1a (H77 strain) replicon in HUH-7 cells. Kind of experiment: HCV replicon luciferase reporter assay, genotype 1a. The experiment is classed as cell-based. The settings on record: Hepatitis C virus, Huh-7, 72 h, HCV genotype 1a replicon luciferase, 3 days incubation, read-out: LE_1a (EC50, range). An outline of the steps:
(§1)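 Replicon inhibition for both genotypes was measured as Renilla luciferase signal (EnduRen, 7.5 μM final, 2 h) after 3-day, 37° C exposure of replicon-bearing HUH-7 cells in 4% FCS DMEM, 0.5% DMSO. The 1b construct carries S1179I; the 1a H77 construct carries P1496L and S2204I. Twenty-point, 3-fold dilutions were fitted four-parametrically for EC50, and CC50 was taken from multiplexed Cell Titer-Blue.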

The subject of experiment [2] is HCV genotype 1b (Con1) replicon in HUH-7 cells. The experiment in a line: HCV replicon luciferase reporter assay, genotype 1b. The experiment is classed as cell-based. As to conditions: Hepatitis C virus, Huh-7, 72 h, HCV genotype 1b replicon luciferase, 3 days incubation, read-out: LE_1b (EC50, range). A digest of the protocol: as §1

As to `CCOc1cc2ccnc(O[C@@H]3C[C@H]4C(=O)N[C@]5(C(=O)NS(=O)(=O)C6CC6)C[C@H]5/C=C\CC[C@@H](C)C[C@@H](C)[C@H](NC(=O)OC(C)(C)C(F)(F)F)C(=O)N4C3)c2cc1F` [Compound 5401, 1,1,1-trifluoro-2-methylpropan-2-yl((2R,6S,7R,9R,13aS,14aR,16aS,Z)-14a-((cyclopropylsulfonyl)carbamoyl)-2-((6-ethoxy-7-fluoroisoquinolin-1-yl)oxy)-7,9-dimethyl-5,16-dioxo-1,2,3,5,6,7,8,9,10,11,13a,14,14a,15,16,16a-hexadecahydrocyclopropa[e]pyrrolo[1,2-a][1,4]diazacyclopentadecin-6-yl)carbamate], the EC50 in experiment [1] lay in the range of 1.01 to 5 nM; in experiment [2], 0.1 to 0.5 nM.
As to `CCOc1cc2ccnc(O[C@@H]3C[C@H]4C(=O)N[C@]5(C(=O)NS(=O)(=O)C6CC6)C[C@H]5/C=C\CC[C@@H](C)C[C@@H](C)[C@H](NC(=O)OC(C)(C)C(C)(F)F)C(=O)N4C3)c2cc1F` [Compound 5403, 3,3-difluoro-2-methylbutan-2-yl((2R,6S,7R,9R,13aS,14aR,16aS,Z)-14a-((cyclopropylsulfonyl)carbamoyl)-2-((6-ethoxy-7-fluoroisoquinolin-1-yl)oxy)-7,9-dimethyl-5,16-dioxo-1,2,3,5,6,7,8,9,10,11,13a,14,14a,15,16,16a-hexadecahydrocyclopropa[e]pyrrolo[1,2-a][1,4]diazacyclopentadecin-6-yl)carbamate], the EC50 was 0.51 to 1 nM in experiment [1] and 0.1 to 0.5 nM in experiment [2].
The matching figures for `CCOc1cc2ccnc(O[C@@H]3C[C@H]4C(=O)N[C@]5(C(=O)NS(=O)(=O)C6CC6)C[C@H]5/C=C\CC[C@@H](C)C[C@@H](CC)[C@H](NC(=O)OC(C)(C)C)C(=O)N4C3)c2cc1F` [Compound 5405, tert-butyl ((2R,6S,7R,9R,13aS,14aR,16aS,Z)-14a-((cyclopropylsulfonyl)carbamoyl)-2-((6-ethoxy-7-fluoroisoquinolin-1-yl)oxy)-7-ethyl-9-methyl-5,16-dioxo-1,2,3,5,6,7,8,9,10,11,13a,14,14a,15,16,16a-hexadecahydrocyclopropa[e]pyrrolo[1,2-a][1,4]diazacyclopentadecin-6-yl)carbamate]: 1.01 to 5 nM and 0.51 to 1 nM.
In the case of `CCOc1cc2ccnc(O[C@@H]3C[C@H]4C(=O)N[C@]5(C(=O)NS(=O)(=O)C6CC6)C[C@H]5/C=C\CC[C@@H](C)C[C@@H](CC)[C@H](NC(=O)OC(C)(C)C(F)(F)F)C(=O)N4C3)c2cc1F` [Compound 5407, 1,1,1-trifluoro-2-methylpropan-2-yl((2R,6S,7R,9R,13aS,14aR,16aS,Z)-14a-((cyclopropylsulfonyl)carbamoyl)-2-((6-ethoxy-7-fluoroisoquinolin-1-yl)oxy)-7-ethyl-9-methyl-5,16-dioxo-1,2,3,5,6,7,8,9,10,11,13a,14,14a,15,16,16a-hexadecahydrocyclopropa[e]pyrrolo[1,2-a][1,4]diazacyclopentadecin-6-yl)carbamate], the EC50 in experiment [1] fell in the range of 1.01 to 5 nM; in experiment [2], 0.51 to 1 nM.
For `CCOc1cc2ccnc(O[C@@H]3C[C@H]4C(=O)N[C@]5(C(=O)NS(=O)(=O)C6CC6)C[C@H]5/C=C\CC[C@@H](C)C[C@@H](CC)[C@H](NC(=O)OC(C)(C)C(C)(F)F)C(=O)N4C3)c2cc1F` [Compound 5409, 3,3-difluoro-2-methylbutan-2-yl((2R,6S,7R,9R,13aS,14aR,16aS,Z)-14a-((cyclopropylsulfonyl)carbamoyl)-2-((6-ethoxy-7-fluoroisoquinolin-1-yl)oxy)-7-ethyl-9-methyl-5,16-dioxo-1,2,3,5,6,7,8,9,10,11,13a,14,14a,15,16,16a-hexadecahydrocyclopropa[e]pyrrolo[1,2-a][1,4]diazacyclopentadecin-6-yl)carbamate], the figures for the EC50 in experiment [1] and in experiment [2] were 1.01 to 5 nM and 0.51 to 1 nM, respectively.
The corresponding values for `CCOc1cc2ccnc(O[C@@H]3C[C@H]4C(=O)N[C@]5(C(=O)NS(=O)(=O)C6(CF)CC6)C[C@H]5/C=C\CC[C@H](C)C[C@@H](C)[C@H](NC(=O)OC(C)(C)C)C(=O)N4C3)c2cc1F` [Compound 5410, tert-butyl ((2R,6S,7R,9S,13aS,14aR,16aS,Z)-2-((6-ethoxy-7-fluoroisoquinolin-1-yl)oxy)-14a-(((1-(fluoromethyl)cyclopropyl)sulfonyl)carbamoyl)-7,9-dimethyl-5,16-dioxo-1,2,3,5,6,7,8,9,10,11,13a,14,14a,15,16,16a-hexadecahydrocyclopropa[e]pyrrolo[1,2-a][1,4]diazacyclopentadecin-6-yl)carbamate] are 5.01 to 35 nM and 1.01 to 5 nM.
The matching figures for `CCOc1cc2ccnc(O[C@@H]3C[C@H]4C(=O)N[C@]5(C(=O)NS(=O)(=O)C6(CF)CC6)C[C@H]5/C=C\CC[C@@H](C)C[C@@H](C)[C@H](NC(=O)OC(C)(C)C)C(=O)N4C3)c2cc1F` [Compound 5411, tert-butyl ((2R,6S,7R,9R,13aS,14aR,16aS,Z)-2-((6-ethoxy-7-fluoroisoquinolin-1-yl)oxy)-14a-(((1-(fluoromethyl)cyclopropyl)sulfonyl)carbamoyl)-7,9-dimethyl-5,16-dioxo-1,2,3,5,6,7,8,9,10,11,13a,14,14a,15,16,16a-hexadecahydrocyclopropa[e]pyrrolo[1,2-a][1,4]diazacyclopentadecin-6-yl)carbamate]: 1.01 to 5 nM and 0.51 to 1 nM.
The matching figures for `CCOc1cc2ccnc(O[C@@H]3C[C@H]4C(=O)N[C@]5(C(=O)NS(=O)(=O)C6(CF)CC6)C[C@H]5/C=C\CC[C@@H](C)C[C@@H](C)[C@H](NC(=O)OC(C)(C)C(F)(F)F)C(=O)N4C3)c2cc1F` [Compound 5413, 1,1,1-trifluoro-2-methylpropan-2-yl((2R,6S,7R,9R,13aS,14aR,16aS,Z)-2-((6-ethoxy-7-fluoroisoquinolin-1-yl)oxy)-14a-(((1-(fluoromethyl)cyclopropyl)sulfonyl)carbamoyl)-7,9-dimethyl-5,16-dioxo-1,2,3,5,6,7,8,9,10,11,13a,14,14a,15,16,16a-hexadecahydrocyclopropa[e]pyrrolo[1,2-a][1,4]diazacyclopentadecin-6-yl)carbamate]: 1.01 to 5 nM and 0.51 to 1 nM.
Regarding `CCOc1cc2ccnc(O[C@@H]3C[C@H]4C(=O)N[C@]5(C(=O)NS(=O)(=O)C6(CF)CC6)C[C@H]5/C=C\CC[C@@H](C)C[C@@H](C)[C@H](NC(=O)OC(C)(C)C(C)(F)F)C(=O)N4C3)c2cc1F` [Compound 5415, 3,3-difluoro-2-methylbutan-2-yl((2R,6S,7R,9R,13aS,14aR,16aS,Z)-2-((6-ethoxy-7-fluoroisoquinolin-1-yl)oxy)-14a-(((1-(fluoromethyl)cyclopropyl)sulfonyl)carbamoyl)-7,9-dimethyl-5,16-dioxo-1,2,3,5,6,7,8,9,10,11,13a,14,14a,15,16,16a-hexadecahydrocyclopropa[e]pyrrolo[1,2-a][1,4]diazacyclopentadecin-6-yl)carbamate], the values for the EC50 in experiment [1] and in experiment [2] were 1.01 to 5 nM and 0.51 to 1 nM, respectively.
As to `CC[C@@H]1C[C@H](C)CC/C=C\[C@@H]2C[C@@]2(C(=O)NS(=O)(=O)C2(C)CC2)NC(=O)[C@@H]2C[C@@H](Oc3ncc(N4CCOCC4)c4ccccc34)CN2C(=O)[C@H]1NC(=O)OC(C)(C)C` [Compound 5417], the EC50 in experiment [1] and in experiment [2] was 1.01 to 5 nM each time.
With `CC[C@@H]1C[C@H](C)CC/C=C\[C@@H]2C[C@@]2(C(=O)NS(=O)(=O)C2(C)CC2)NC(=O)[C@@H]2C[C@@H](Oc3ncc(N4CCOCC4)c4ccccc34)CN2C(=O)[C@H]1NC(=O)OC(C)(C)C(F)(F)F` [Compound 5419, 1,1,1-trifluoro-2-methylpropan-2-yl((2R,6S,7R,9R,13aS,14aR,16aS,Z)-7-ethyl-9-methyl-14a-(((1-methylcyclopropyl)sulfonyl)carbamoyl)-2-((4-morpholinoisoquinolin-1-yl)oxy)-5,16-dioxo-1,2,3,5,6,7,8,9,10,11,13a,14,14a,15,16,16a-hexadecahydrocyclopropa[e]pyrrolo[1,2-a][1,4]diazacyclopentadecin-6-yl)carbamate], the EC50 in experiment [1] was in the range of 1.01 to 5 nM; in experiment [2], 0.51 to 1 nM.
Consider `C[C@@H]1CC/C=C\[C@@H]2C[C@@]2(C(=O)NS(=O)(=O)C2(C)CC2)NC(=O)[C@@H]2C[C@@H](Oc3ncc(N4CCOCC4)c4ccccc34)CN2C(=O)[C@@H](NC(=O)OC(C)(C)C)[C@H](C)C1` [Compound 5421, tert-butyl ((2R,6S,7R,9R,13aS,14aR,16aS,Z)-7,9-dimethyl-14a-(((1-methylcyclopropyl)sulfonyl)carbamoyl)-2-((4-morpholinoisoquinolin-1-yl)oxy)-5,16-dioxo-1,2,3,5,6,7,8,9,10,11,13a,14,14a,15,16,16a-hexadecahydrocyclopropa[e]pyrrolo[1,2-a][1,4]diazacyclopentadecin-6-yl)carbamate], for which the EC50 fell in the range of 1.01 to 5 nM in experiment [1] and 0.51 to 1 nM in experiment [2].
The matching figures for `C[C@@H]1CC/C=C\[C@@H]2C[C@@]2(C(=O)NS(=O)(=O)C2(C)CC2)NC(=O)[C@@H]2C[C@@H](Oc3ncc(N4CCOCC4)c4ccccc34)CN2C(=O)[C@@H](NC(=O)OC(C)(C)C(F)(F)F)[C@H](C)C1` [Compound 5423, 1,1,1-trifluoro-2-methylpropan-2-yl((2R,6S,7R,9R,13aS,14aR,16aS,Z)-7,9-dimethyl-14a-(((1-methylcyclopropyl)sulfonyl)carbamoyl)-2-((4-morpholinoisoquinolin-1-yl)oxy)-5,16-dioxo-1,2,3,5,6,7,8,9,10,11,13a,14,14a,15,16,16a-hexadecahydrocyclopropa[e]pyrrolo[1,2-a][1,4]diazacyclopentadecin-6-yl)carbamate]: 1.01 to 5 nM and 0.51 to 1 nM.
